Some test systems named below: DU-145 prostate; MCF7 breast; MDA-MB-435; NCI/ADR-RES ovarian; PC-3 prostate.
What all share (assay): DTP human tumour cell line panel, 48 h

The results in this text go back to PubChem BioAssay (NCI).

Molecules are shown by their SMILES.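 Assay format: 96-well plates, 48-hour exposure. Here, GI50 denotes the concentration required for 50% inhibition of growth. TGI marks complete inhibition of growth.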

For `CCN(CC)CCC(=O)Nc1ccc(Cn2nnc3c2C(=O)c2nnn(Cc4ccc(NC(=O)CCN(CC)CC)cc4)c2C3=O)cc1`, the GI50 (usually the concentration at which growth is held to half of that of the control) with DU-145 prostate was 1.05 µM; with MCF7 breast, 0.154 µM; with MDA-MB-435, 0.173 µM; in the experiment on NCI/ADR-RES ovarian it was more than 100 µM; in the experiment with PC-3 prostate, 1.98 µM. Besides, the TGI – broadly, the concentration at which net growth stops – was 2.25 µM in the experiment with DU-145 prostate; 0.373 µM in the experiment with MCF7 breast; 0.324 µM in the experiment with MDA-MB-435; more than 100 µM in the experiment with NCI/ADR-RES ovarian; 6.87 µM in the experiment with PC-3 prostate.
As for `O=C(/C=C/N1CCN(c2cccc(C(F)(F)F)c2)CC1)c1ccc(Cl)cc1Cl`, the GI50 is 35.1 µM in the experiment with DU-145 prostate; 24.7 µM in the experiment with MCF7 breast; 25.6 µM in the experiment on MDA-MB-435; 21.7 µM with NCI/ADR-RES ovarian; 31.7 µM with PC-3 prostate. In addition, the TGI in the experiment with DU-145 prostate was more than 100 µM; with MCF7 breast, 60.7 µM; in the experiment on MDA-MB-435 it was 44.6 µM; in the experiment with NCI/ADR-RES ovarian, 50.8 µM; with PC-3 prostate it was more than 100 µM.
As for `CC[C@]12C=CCN3CC[C@]4(C(=C(C(=O)OC)C1)Nc1cc(O)ccc14)[C@@H]32`, the GI50 with DU-145 prostate was 21.7 µM; in the experiment with MCF7 breast, 19.1 µM; with MDA-MB-435 it was 3.63 µM; in the experiment with NCI/ADR-RES ovarian, 14.4 µM; in the experiment with PC-3 prostate it was 21.2 µM. The TGI in the experiment on DU-145 prostate stood at 45.3 µM; in the experiment on MCF7 breast, 45.5 µM; with MDA-MB-435 it was 16.8 µM; with NCI/ADR-RES ovarian, 33.6 µM; in the experiment with PC-3 prostate, 50.5 µM.
`COc1ccc2nc3ccc(OC)cc3c(SCCCN)c2c1`: the GI50 was 1.81 µM with DU-145 prostate, 6.83 µM in the experiment with MDA-MB-435, 13.1 µM with NCI/ADR-RES ovarian and 1.71 µM in the experiment on PC-3 prostate. Further, the TGI in the experiment on DU-145 prostate is 3.26 µM; with MDA-MB-435, 27.6 µM; with NCI/ADR-RES ovarian, 37.1 µM; with PC-3 prostate it was 4.68 µM.
Turning to `C/C(=C(/c1ccc(O)cc1)c1ccc(OCCN2CCCC2)cc1)c1ccccc1`, the GI50 in the experiment with DU-145 prostate was 9.72 µM; in the experiment on MDA-MB-435 it was 1.88 µM; with NCI/ADR-RES ovarian, 4.17 µM; in the experiment on PC-3 prostate, 4.28 µM. For the same molecule, the TGI came to 21.4 µM in the experiment with DU-145 prostate; 2.72 µM with MCF7 breast; 4.4 µM in the experiment with MDA-MB-435; 18.3 µM in the experiment with NCI/ADR-RES ovarian; 14.7 µM in the experiment on PC-3 prostate.
With `Cc1nnc([S-])s1.[Au+].c1ccc([PH+](c2ccccc2)c2ccccc2)cc1`, the GI50 with DU-145 prostate is 1.68 µM; with MDA-MB-435, 1.7 µM; in the experiment with PC-3 prostate it was 1.52 µM. Also, the values for the TGI in the experiment with DU-145 prostate, in the experiment with MDA-MB-435 and in the experiment with PC-3 prostate were 3.23 µM, 3.18 µM and 2.92 µM, respectively.
Take `CCCC/C(=N\N=C(N)N)c1ccc(F)cc1`: the GI50 in the experiment on DU-145 prostate is 3.89 µM; in the experiment on MCF7 breast, 0.758 µM; with MDA-MB-435, 0.381 µM; in the experiment on NCI/ADR-RES ovarian, 2.38 µM; in the experiment on PC-3 prostate, 2.85 µM. Also, the TGI was found to be 14.7 µM with DU-145 prostate; 11.9 µM with MCF7 breast; 2.22 µM in the experiment with MDA-MB-435; 8.29 µM with NCI/ADR-RES ovarian; 14.3 µM in the experiment with PC-3 prostate.
As to `O=C(OCc1ccccc1CN1CCOCC1)c1ccc(Br)cc1`, the TGI in the experiment with DU-145 prostate was more than 100 µM; with MCF7 breast, more than 100 µM; with MDA-MB-435 it was 95.2 µM; with NCI/ADR-RES ovarian it was more than 100 µM; in the experiment on PC-3 prostate, more than 100 µM.
As to `CCCCCCCCCCCCCCCC[N+]1(CC)CCCC1`, the results for the GI50 with DU-145 prostate, in the experiment with NCI/ADR-RES ovarian and with PC-3 prostate were 0.84 µM, 12.9 µM and 0.284 µM, respectively. For the same molecule, the TGI was 2.14 µM with DU-145 prostate, 38.4 µM in the experiment on NCI/ADR-RES ovarian and 1.15 µM in the experiment on PC-3 prostate.
On to `CCN(CC)CCOc1ccc(/C=C2\C[C@H]3[C@@H]4CC=C5C[C@@H](OC(C)=O)CC[C@]5(C)[C@H]4CC[C@]3(C)[C@H]2OC(C)=O)cc1OC`, for which the GI50 in the experiment on DU-145 prostate is 5.84 µM; in the experiment on MCF7 breast, 12.8 µM; in the experiment on MDA-MB-435 it was 11 µM; in the experiment on NCI/ADR-RES ovarian it was 11.1 µM; in the experiment with PC-3 prostate, 7.68 µM. Also, the TGI is 12.2 µM in the experiment with DU-145 prostate; more than 50 µM in the experiment with MCF7 breast; 21.7 µM in the experiment on MDA-MB-435; 22.3 µM with NCI/ADR-RES ovarian; 21.3 µM with PC-3 prostate.
In the case of `O=C1C=C(Nc2cccc(Br)c2)c2ccccc2C1=O`, the GI50 with DU-145 prostate is 0.569 µM; in the experiment with MCF7 breast, 2.71 µM; with MDA-MB-435, 0.19 µM; in the experiment with NCI/ADR-RES ovarian, 10.8 µM; in the experiment with PC-3 prostate, 8.68 µM. Further, the TGI in the experiment with DU-145 prostate is 14 µM; with MCF7 breast it was 24.2 µM; in the experiment on MDA-MB-435 it was 0.484 µM; in the experiment on NCI/ADR-RES ovarian, 51.6 µM; in the experiment with PC-3 prostate, more than 100 µM.
As to `COc1ccc(C2=CC(c3cc(OC)c(OC)c(OC)c3)n3ncnc3N2)cc1` (stereo not given), the GI50 with DU-145 prostate is 0.0648 µM; with MCF7 breast, 0.0399 µM; with NCI/ADR-RES ovarian, 0.0444 µM; in the experiment with PC-3 prostate, 0.0536 µM. The TGI with DU-145 prostate was 97.8 µM; with MCF7 breast it was 13.7 µM; with NCI/ADR-RES ovarian, 20.3 µM; in the experiment with PC-3 prostate, more than 100 µM.
Regarding `CC1(C)N=C(N)N=C(N)N1c1ccc(OCC(=O)Nc2cccc(S(=O)(=O)F)c2)c(Cl)c1`, the TGI was more than 100 µM in the experiment with DU-145 prostate; more than 43.5 µM in the experiment with MCF7 breast; more than 100 µM with MDA-MB-435; more than 100 µM in the experiment on NCI/ADR-RES ovarian; more than 76.6 µM in the experiment with PC-3 prostate.
On to `N#CC1c2ccccc2-c2ccccc2N1C(=O)c1ccccc1` (stereo not given), for which the GI50 is 1.72 µM with DU-145 prostate; 1.3 µM with MCF7 breast; 0.255 µM in the experiment with MDA-MB-435; 1.81 µM in the experiment on NCI/ADR-RES ovarian; 6.86 µM in the experiment with PC-3 prostate. Moreover, the TGI in the experiment with DU-145 prostate was 4.21 µM; with MCF7 breast, more than 100 µM; with MDA-MB-435 it was 0.761 µM; in the experiment on NCI/ADR-RES ovarian it was more than 100 µM; in the experiment with PC-3 prostate it was more than 100 µM.
`O=C(N[C@@H]1CCCc2ccccc21)[C@H](CCC(=O)N1CCN(C2CCCCC2)CC1)N1C(=O)[C@@H](N2C(=O)OC[C@@H]2c2ccccc2)[C@H]1/C=C/c1ccccc1`: the GI50 in the experiment with DU-145 prostate was 2.9 µM; in the experiment on MCF7 breast, 2.18 µM; in the experiment with MDA-MB-435, 1.35 µM; in the experiment with NCI/ADR-RES ovarian, 2.78 µM; with PC-3 prostate, 2.32 µM. The TGI in the experiment with DU-145 prostate worked out at 19.3 µM; in the experiment on MCF7 breast, 13.4 µM; with MDA-MB-435, 2.72 µM; in the experiment with NCI/ADR-RES ovarian, 10.6 µM; with PC-3 prostate, 8.35 µM.
Turning to `c1ccc2c(c1)nc(NCCN1CCNCC1)c1c3ccccc3[nH]c21`, the GI50 was 0.227 µM with DU-145 prostate; 0.0799 µM in the experiment with MCF7 breast; 0.798 µM in the experiment on MDA-MB-435; 1.52 µM with NCI/ADR-RES ovarian; 0.356 µM in the experiment on PC-3 prostate. Further, the TGI in the experiment on DU-145 prostate was 1.4 µM; in the experiment with MCF7 breast, 0.709 µM; with MDA-MB-435, 2.24 µM; in the experiment on NCI/ADR-RES ovarian it was 7.63 µM; in the experiment on PC-3 prostate it was 1.97 µM.
For `Cc1ccc(NCSc2ccc(Cl)cc2)cc1`, the GI50 with DU-145 prostate was more than 100 µM; in the experiment on MCF7 breast, more than 100 µM; in the experiment on MDA-MB-435 it was 9.99 µM; with NCI/ADR-RES ovarian, more than 100 µM; with PC-3 prostate, 10.2 µM. For the same molecule, the TGI in the experiment with DU-145 prostate, in the experiment on MCF7 breast, in the experiment with MDA-MB-435, in the experiment on NCI/ADR-RES ovarian and with PC-3 prostate was more than 100 µM in each case.
As to `O=C1OC(c2ccc(O)cc2)(c2ccc(O)cc2)c2cccc3cccc1c23`, the GI50 in the experiment on DU-145 prostate is 17.2 µM; in the experiment with MCF7 breast, 1.98 µM; with MDA-MB-435, 9.04 µM; in the experiment with NCI/ADR-RES ovarian, 21.9 µM; in the experiment with PC-3 prostate it was 11.5 µM. Also, the TGI stood at 31.6 µM in the experiment with DU-145 prostate; 25.9 µM with MCF7 breast; 22.4 µM with MDA-MB-435; 68.7 µM in the experiment with NCI/ADR-RES ovarian; 29 µM in the experiment with PC-3 prostate.
With `Cc1ccc(C2=Nc3c(N)ncnc3NC(c3cccc(Nc4ccnc5cc(C(F)(F)F)ccc45)c3)C2)cc1` (stereo not given), the GI50 in the experiment with DU-145 prostate is 6.83 µM; with MCF7 breast, 2.41 µM; with MDA-MB-435, 1.94 µM; with NCI/ADR-RES ovarian it was 2.96 µM; in the experiment on PC-3 prostate it was 2.8 µM. Besides, the TGI in the experiment with DU-145 prostate was more than 100 µM; in the experiment on MCF7 breast, 11.5 µM; in the experiment on MDA-MB-435 it was 4.84 µM; in the experiment on NCI/ADR-RES ovarian it was 10.2 µM; in the experiment with PC-3 prostate it was 12.5 µM.
For `CN1C(=O)c2cc(Cl)nc3c(NC(=O)c4cccc(Cl)c4)c(Cl)c(NC(=O)c4cccc(Cl)c4)c1c23`, the GI50 with DU-145 prostate is 2.28 µM; in the experiment on MCF7 breast it was 1.94 µM; in the experiment on MDA-MB-435 it was 1.7 µM; in the experiment with NCI/ADR-RES ovarian, 3.38 µM; in the experiment with PC-3 prostate, 1.93 µM. In addition, the TGI with DU-145 prostate amounted to 5.19 µM; in the experiment on MCF7 breast it was 6.26 µM; in the experiment on MDA-MB-435 it was 3.2 µM; in the experiment on NCI/ADR-RES ovarian, 17.3 µM; in the experiment with PC-3 prostate, 3.99 µM.
Regarding `COc1ccc(C[C@H]2C[C@@H](O)[C@@H](C)C/C=C/Cc3cccc(O)c3C(=O)O2)cn1`, the GI50 in the experiment with DU-145 prostate was 27.7 µM; in the experiment with MCF7 breast it was 19.5 µM; in the experiment on MDA-MB-435 it was 19.9 µM; in the experiment on NCI/ADR-RES ovarian it was 19.1 µM. The TGI in the experiment with DU-145 prostate is more than 100 µM; with MCF7 breast, 66.6 µM; in the experiment with MDA-MB-435, 46.6 µM; in the experiment with NCI/ADR-RES ovarian, 48.8 µM.
